Blank lines part the entries; values can stand above or below the molecule they belong to.
Columns and labels:
obese mice = details: cited from earlier work
NO-deficient rats = details: cited from earlier work
[1] = molecular target: T1, human recombinant soluble guanylate cyclase enzyme α1β1 (Homo sapiens, UniProt Q02108+Q02153); test: Purified human recombinant sGC α1β1 enzyme assay with DETA-NONOate, cGMP HTRF (Example 5); assay type: biochemical; details: 30 uM DETA NONOate, 50% of maximal response of 30 uM Compound Y, read-out: sGC_Enz_HTRF_a1b1 EC50/IC50 Abs (Norm) (nM) Binned
T1 construct: purchased Enzo Life Sciences ALX-201-177
T1 sequence (Q02153 1-619): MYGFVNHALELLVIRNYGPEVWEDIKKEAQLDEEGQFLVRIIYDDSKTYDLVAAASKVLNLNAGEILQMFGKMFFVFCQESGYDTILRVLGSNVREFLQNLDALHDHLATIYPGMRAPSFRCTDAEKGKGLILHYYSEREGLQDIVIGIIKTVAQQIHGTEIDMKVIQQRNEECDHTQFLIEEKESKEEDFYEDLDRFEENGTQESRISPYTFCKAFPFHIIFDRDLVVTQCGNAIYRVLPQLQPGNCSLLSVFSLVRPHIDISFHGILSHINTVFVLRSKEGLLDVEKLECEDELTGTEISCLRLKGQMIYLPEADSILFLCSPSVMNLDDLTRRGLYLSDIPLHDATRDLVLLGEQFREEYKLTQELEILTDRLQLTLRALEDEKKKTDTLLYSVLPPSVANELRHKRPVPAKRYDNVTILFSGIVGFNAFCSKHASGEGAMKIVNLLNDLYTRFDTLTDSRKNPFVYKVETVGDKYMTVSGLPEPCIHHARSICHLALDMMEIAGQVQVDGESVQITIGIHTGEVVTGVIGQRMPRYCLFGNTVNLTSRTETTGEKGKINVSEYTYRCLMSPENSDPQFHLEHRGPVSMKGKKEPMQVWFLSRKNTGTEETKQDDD
T1 sequence (Q02108 1-690): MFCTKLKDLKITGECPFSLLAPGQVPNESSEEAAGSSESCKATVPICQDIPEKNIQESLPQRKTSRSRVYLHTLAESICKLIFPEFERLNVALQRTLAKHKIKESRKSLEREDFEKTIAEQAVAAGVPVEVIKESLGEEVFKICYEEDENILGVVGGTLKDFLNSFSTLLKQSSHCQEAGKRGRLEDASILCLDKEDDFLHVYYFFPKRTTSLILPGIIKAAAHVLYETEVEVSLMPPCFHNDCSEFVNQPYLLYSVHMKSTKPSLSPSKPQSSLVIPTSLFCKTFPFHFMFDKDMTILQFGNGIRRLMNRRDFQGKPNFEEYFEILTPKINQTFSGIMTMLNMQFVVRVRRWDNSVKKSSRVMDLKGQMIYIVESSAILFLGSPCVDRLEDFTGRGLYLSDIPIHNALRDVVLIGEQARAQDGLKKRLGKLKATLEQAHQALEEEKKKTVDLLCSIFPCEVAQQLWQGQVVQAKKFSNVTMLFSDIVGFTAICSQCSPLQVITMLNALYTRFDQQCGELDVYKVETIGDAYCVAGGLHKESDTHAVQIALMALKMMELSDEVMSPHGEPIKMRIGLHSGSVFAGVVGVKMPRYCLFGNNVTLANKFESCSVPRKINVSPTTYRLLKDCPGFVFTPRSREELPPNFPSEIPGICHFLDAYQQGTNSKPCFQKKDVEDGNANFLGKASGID
Description: Purified human recombinant soluble guanylate cyclase enzyme α1β1 (h sGC) obtained from Enzo Life Sciences (P/N: ALX-201-177) was used to evaluate the activity of test compounds. The assay reactions contained 0.1 M Tris (pH 8.0), 0.5 mg/mL BSA, 2 mM DTT, 4 mM MgCl2, 30 uM DETA NONOate (Enzo Life Science P/N: ALX-430-014), and 12.5 ng/ml human soluble guanylate cyclase enzyme. […] Guanosine 5′-triphosphate (Sigma-Aldrich P/N: G8877) was added to a final concentration of 300 μM and enzyme reactions were incubated (100 μL, 384-well plate format) at 37° C. for 20 minutes. The controls contained 3% DMSO (low control), or 30 uM of Compound Y (high control). After the 20 minute incubation, the reaction was stopped with the addition of 100 μL of ice cold 20% acetic acid.
cGMP concentrations in all samples were determined using the cGMP HTRF (Cisbio P/N: 62GM2PEC) assay per manufacturer's instructions. A cGMP standard curve was fit using a 4-parameter fit (log(inhibitor) vs. response variable slope) using GraphPad Prism Software v.6. Samples were diluted appropriately to ensure that values fell within the linear range of the standard curve.
Data were fit using a 4-parameter fit (log(agonist) vs. response variable slope) using GraphPad Prism Software v.6.

sGC enzyme = molecular target: T2, sGC enzyme (Homo sapiens, UniProt Q02108+Q02153); test: cGMP GloSensor cell-based assay, 384-well format (Example 2C); details: read-out: sGC_HEK_GloSensor EC50/IC50 Abs (Norm) (nM) Binned
T2 construct: host or cells: HEK293 cells stably expressing GloSensor 40F cGMP biosensor
T2 sequence (Q02153 1-619): T1 sequence (Q02153 1-619)
T2 sequence (Q02108 1-690): T1 sequence (Q02108 1-690)
Description: Human embryonic kidney cells (HEK293) cells expressing GloSensor™ 40F cGMP (Part No: CS182801, Promega) were used to evaluate the activity of test compounds. The luminescent biosensors (engineered luciferase) that were incorporated into these cells detect cGMP formed by the compounds stimulating the sGC enzyme and emit luminescence.
cGMP GloSensor cells were maintained in Dulbecco's Modification of Eagle's Medium (DMEM) supplemented with fetal bovine serum (FBS) (10% final) and hygromycine (200 ug/ml). The day before assay, cells were plated in DMEM with 10% FBS in a 50 μL volume at a density of 1.5×10^4 cells/well in a poly-D-lysine coated 384-well flat white-bottom plate (Corning Cat No 35661). Cells were incubated overnight at 37° C. in a humidified chamber with 5% CO2. The next day, medium was removed and cells were replaced with 40 ul/well of GloSensor™, 2 mM (Promega Cat No E1291). Cells were treated for 90 minutes at 25° C. to allow the substrate to equilibrate in the cells. Test compounds and Diethylenetriamine NONOate (DETA-NONOate) was diluted to 3 mM (20×) in serum-free CO2 independent medium and serally diluted at 4× dilutions to create 5× dose curve from which 10 ul was added to the wells (x μM concentration for test compound solution and 10 μM concentration for DETA-NONOate solution; wherein x is one of the following final concentrations).
For the kinetics studies, luminescense was measured right away for 0.2 sec per well with Envision (Perkin Elmer model No). For endpoint SAR screening, data were collected after 55 min incubation at room temperature.
Data analysis was carried out as indicated above in Example 2C.

[2] = tested on: Guinea pig tracheal smooth muscle; test: Electrical field stimulated guinea pig tracheal smooth muscle contraction (ex vivo); details: sub-maximal EFS, cumulative dose response curve, three animals pooled; read-out: IC50, inhibition of EFS-induced tracheal smooth muscle contraction
Description: On each experimental day, a guinea pig is killed by exposure to a rising concentration of CO2 and the trachea removed. The trachea is cleaned of extraneous tissue and cut open longitudinally in a line opposite the muscle, opened out and cut into strips 2-3 cartilage rings wide. A cotton loop is attached to one end of each tracheal strip and a length of cotton to the other end. Tracheal strips are then suspended between two platinum electrodes, using tissue holders, in a Myobath system (World Precision Instruments Stevenage, UK). […] Tissues are washed with Kreb's buffer and stimulated using the previously determined sub-maximal voltage for 1 hour to establish a stable baseline contraction prior to assessment of compound activity.
A cumulative dose response curve (DRC) to each test substance is then performed and changes in smooth muscle contraction measured. The effect of each test substance in each experiment is expressed as a percentage inhibition of the baseline contraction, normalized to the relevant vehicle controls. […] The data from all three experiments are pooled, the DRC plotted, and the test substance potency and efficacy determined.

- EC50 (sGC enzyme): > 1000 nM
Compound: OCCSc1nc(-c2cc(-c3ccon3)n(Cc3ccccc3F)n2)ncc1F [Compound I-34]

- EC50 (sGC enzyme): > 1000 nM
Compound: OCCSc1cnc(-c2cc(-c3ccon3)n(Cc3ccccc3F)n2)nc1SCCO [Compound I-35]

- EC50 (sGC enzyme): 100 to 1000 nM
Compound: Fc1ccccc1Cn1nc(-c2ncc(F)c(Sc3ccccc3)n2)cc1-c1ccon1 [Compound I-37]

- EC50 (sGC enzyme): ≤ 100 nM
Compound: O=S(=O)(c1ccccc1)c1nc(-c2cc(-c3ccon3)n(Cc3ccccc3F)n2)ncc1F [Compound I-38]

Further lines, the molecule ahead of its results:

Compound: O=C(O)CCCCN(CCc1cc(F)ccc1OCc1ccc(-c2ccc(C(F)(F)F)cc2)cc1)Cc1ccc(C(=O)O)cc1 [BAY 60-2770]
- effect on overactive bladder (obese mice): ameliorates overactive bladder in obese mice

Compound: Nc1nc(-c2nn(Cc3ccccc3F)c3ncccc23)ncc1C1CC1 [BAY-2272]
- effect on bladder dysfunction (NO-deficient rats): protective effects

Compound: O=C(O)COc1nc(-c2cc(-c3ccon3)n(Cc3ccccc3F)n2)ncc1F [Compound I-6]
- EC50 [1]: ≥ 5000 nM

Compound: CC(C)[N+]1(C)[C@@H]2CC[C@H]1CC(OC(=O)C(CO)c1ccccc1)C2 (some centres unmarked) [Ipratropium bromide]
- IC50 [2]: 0.00086 µM

Source: patent publication US20170298055A1, “sGC STIMULATORS” (IRONWOOD PHARMACEUTICALS, INC., priority 2014, published 2017)
